The values below come from patent publication US11291674B2 (CALITHERA BIOSCIENCES, INC., priority 2016, dated 2022).

Where “and” joins values, the source holds several entries; their conditions need not be identical. Equal values may be shown once.

In general, IC50 refers to the midpoint of a concentration-inhibition curve.

Series [1] has as its system granulocyte-mediated suppression of T cell proliferation. As to the kind of experiment: T cell/granulocyte co-culture assay, healthy donor. The class given is cell-based, human. How it is done:
T cell and NK cell proliferation assays. T cells or NK cells were purified from healthy donor human blood or from murine splenocytes using a negative selection kit for the appropriate cell type and species from Stemcell Technologies. Isolated T cells or NK cells were loaded with carboxyfluorescein succinimidyl ester (CFSE, Thermo Fisher) and stimulated for 72-96 h in complete growth media containing a minimum of either 50 µM L-arginine (NK cells) or 100 μM L-arginine (T cells). […] Proliferation was quantified by analyzing CFSE dilution by flow cytometry (Guava flow cytometer, Millipore, Billerica, Mass. or Attune N×T flow cytometer, ThermoFisher).
T cell/myeloid cell co-culture assays. […] Granulocytes were incubated for 48 h at 37° C., during which time they spontaneously activate as determined by surface expression of CD66b and scatter properties. […] Co-cultures were incubated for 3-4 days, at which time media were analyzed for L-arginine and L-ornithine by mass spectrometry and T cell proliferation was determined by flow cytometry. […] Cytokines were quantified in the media from T cell co-culture assays using the Cytometric Bead Array kit according to the manufacturer's instructions (BD Biosciences).

The target in series [2] is T1, Recombinant bovine endothelial NOS (Bos taurus, UniProt P29473).
T1 construct: Eurofins/Cerep Panlabs (contract laboratory that ran the assay)
Nature of the series: NOS activity assay, endothelial NOS. Conditions: 50 μM arginase inhibitor. The class given is biochemical. From the text: (§1) Nitric oxide (NO) synthase (NOS) activity assays.
(§2) Standard deviations are indicated in parentheses. […] N/A=not applicable.

Series [3] concerns G-MDSC-mediated suppression of T cell proliferation. Nature of the series: T cell proliferation in media conditioned by G-MDSC of a lung cancer patient. Type of series: cell-based, human. As to the method:
T cell/myeloid cell co-culture assays. […] Granulocytes were incubated for 48 h at 37° C., during which time they spontaneously activate as determined by surface expression of CD66b and scatter properties. T cells isolated from the same donor using a pan-T cell isolation kit (Stemcell Technologies) were loaded with CFSE and plated with immobilized anti-CD3 and soluble anti-CD28 in the presence of the aged granulocytes. The cells were co-cultured at several ratios of granulocytes to T cells as indicated or at a fixed ratio of 4 T cells to 1 granulocyte. Co-cultures were incubated for 3-4 days, at which time media were analyzed for L-arginine and L-ornithine by mass spectrometry and T cell proliferation was determined by flow cytometry. Granulocytic MDSC (G-MDSC) or granulocytes from cancer patients were isolated from whole blood purchased from Conversant Biologics. G-MDSCs were purified from the PBMC layer of a Ficoll gradient by positive selection for CD66b^+ cells. Granulocytes were purified from the RBC layer of a Ficoll gradient using Hetasep (Stemcell Technologies). […] Cytokines were quantified in the media from T cell co-culture assays using the Cytometric Bead Array kit according to the manufacturer's instructions (BD Biosciences).

In another series the target is T2, Recombinant human Arg2 (Homo sapiens, UniProt P78540).
T2 construct: Recombinant human arginase 2 (Arg2) comprising amino acids […] was purchased from US Biological; purchased US Biological
T2 sequence (P78540 23-354): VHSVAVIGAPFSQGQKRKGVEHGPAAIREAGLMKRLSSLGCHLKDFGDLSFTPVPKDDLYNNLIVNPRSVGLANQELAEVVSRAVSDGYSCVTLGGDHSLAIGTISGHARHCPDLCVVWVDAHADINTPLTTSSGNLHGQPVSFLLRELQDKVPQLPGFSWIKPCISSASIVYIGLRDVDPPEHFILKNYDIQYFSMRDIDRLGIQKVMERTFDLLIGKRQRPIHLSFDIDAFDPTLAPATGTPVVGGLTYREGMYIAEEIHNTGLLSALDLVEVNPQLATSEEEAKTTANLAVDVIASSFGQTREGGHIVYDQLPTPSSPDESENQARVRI
Nature of the series: Recombinant arginase activity assay, Arg2. Type of series: biochemical. The note with it: mean (SD), N=2, 20 mM L-arginine.
Source text: Recombinant arginase activity assays. […] Recombinant human arginase 2 (Arg2) comprising amino acids […] was purchased from US Biological (Salem, Mass.).
as §2

Series [4] relates to intracellular arginase in Human HepG2 cell line. Nature of the series: Native arginase activity in intact cells, HepG2. The class given is cell-based. Conditions: mean (SD), N=3, 10 mM L-arginine, urea in media after 24 h. From the text: Native arginase activity in intact cells.
Standard deviations are indicated in parentheses.

Another series relates to LLC tumors. Nature of the series: LLC tumors in mice with conditional Arg1 deletion in the myeloid lineage. The class given is in vivo, mouse. The note with it: 100 mg/kg every 12 h for 14 days. From the text:
Conditional Arg1 deleted mice. Arg1 floxed mice were crossed to the Tie2-Cre deleter strain (The Jackson Laboratory) as previously described. Experimental mice were generated from crossing Arg1^Flox/Flox; Tie2-Cre^+ males with Arg1^Flox/Flox; Tie2-Cre^+ females, with Cre negative littermates serving as wild-type controls. Mice were housed and used in accordance with protocols approved by the Institutional Animal Care and Use Committee at St. Jude Children's Research Hospital. LLC cells (1×10^6 per mouse) were injected s.c. in the flank region. […] Mice were euthanized, and tumors excised and weights recorded. Myeloid deletion of Arg1 was confirmed via western blotting of IL-4-stimulated bone marrow-derived macrophages for all animals.

The next series relates to B16 tumors. Nature of the series: Adoptive T cell transfer study, B16 model. The note with it: compared to either single agent; all groups cyclophosphamide plus fludarabine. Type of series: in vivo, mouse. As to the method: Adoptive T cell transfer studies. Activated gp100-specific CD8^+ (Pmel-1) T cells were generated as described in Ya et al. Briefly, splenocytes from Pmel-1 TCR transgenic mice were isolated, pulsed with 1 μM of murine gp10025-33 (Anaspec, Fremont, Calif.) and expanded for 1 week in the presence of 60 IU/mL recombinant human IL-2 (Peprotech, Rocky Hill, N.J.). Cells were >90% CD8^+Vβ13^+ T cells as determined by flow cytometry. C57BL/6 mice were inoculated s.c. with B16 tumor cells. […] On day 7, lymphopenia was induced by a non-myeloablative chemotherapy regimen of 250 mg/kg cyclophosphamide and 50 mg/kg fludarabine administered i.p. The chemotherapy regimen was administered to all groups. On day 9, mice were administered 1×10^6 Pmel-1 T cells intravenously (i.v.). Mice receiving Pmel-1 T cells also received recombinant human IL-2 (200,000 IU/dose) administered i.p. twice daily for 3 days starting the day of T cell transfer.

Series [5] is described as follows: Pharmacokinetic and pharmacodynamic study in LLC tumor-bearing mice. Type of series: in vivo, mouse. The text has this: (****P<0.0001; ***P<0.001; **P<0.01 vs. vehicle).
In series [6] the target is T3, Rat cerebellar neuronal NOS (Rattus norvegicus, UniProt P29476).
T3 construct: native rat cerebellar neuronal NOS; tissue Eurofins/Cerep Panlabs (contract laboratory that ran the assay); host or cells: rat cerebellum
As to the kind of experiment: NOS activity assay, neuronal NOS. The class given is biochemical. Conditions: 50 μM arginase inhibitor.
Source text: as §1, §2

For the compound `C[C@H](N)C(=O)N1C[C@H](CCCB(O)O)[C@](N)(C(=O)O)C1` [arginase inhibitor], the “T cell proliferation restored, of the proliferation observed for T cells without granulocytes” value in series [1] (co-culture with healthy donor granulocytes) stood at 90%. Further, the “Depletion of L-arginine from the media by granulocytes” value in series [1] (healthy donor granulocytes) was “blocked depletion of L-arginine”. In series [2], the “Inhibition of endothelial NOS” value is “No inhibition”. Besides, in series [3] (G-MDSC of a lung cancer patient), the “Arginine depletion of the media” value is on record as “arginine depletion was blocked”. Moreover, the “T cell proliferation restored, of control levels” value in series [3] (media conditioned by G-MDSC of a lung cancer patient) is 99%. Further, the IC50 at Recombinant human Arg2 was 274 nM and 296 nM; in [4] it was 32000 nM. In addition, the “Tumor growth in Arg flox/flox; Tie2-Cre+ (ARG1 ΔM) animals” value in the series on LLC tumors was “no further reduction in tumor growth”. Moreover, in the series on B16 tumors, the “Tumor growth, combination with T cells specific for the PMEL tumor antigen” value is given as “significantly reduced tumor growth”. In addition, the “L-arginine in tumor and plasma” value in series [5] (oral dosing, tumor-bearing mice) is “raised the amount of L-arginine”. Further, the “Exposure of arginase inhibitor in tumor and plasma” value in series [5] (single dose or BID dosing for 5 days, oral, 2 h after last dose) is “dose-dependent exposure”. Also, the “Inhibition of neuronal NOS” value in series [6] is on record as “No inhibition”.
